# Measured values as given in US20260242359A1, “IRHOM2 INHIBITORS AND USES THEREOF” (NEW YORK SOCIETY FOR THE RELIEF OF THE RUPTURED AND …, priority 2023, published 2026).
# Test system: PMA-stimulated TGFα release from HEK-293 cells (substrate of iRhom1/ADAM17 and iRhom2/ADAM17)
# Assay: Counter screen (Example 4b): PMA-stimulated TGFα release from HEK-293 cells, AP readout
# Format: cell-based
# Settings: Homo sapiens, HEK293, HEK-293 cells expressing TGFα-AP, PMA 100 ng/mL, 2 h
# Experimental: A tertiary counterscreen was also performed to monitor the release of TGFα, which is a substrate of iRhom1/ADAM17 and iRhom2/ADAM17, so its release should not be blocked by an iRhom2-selective inhibitor (Maretzky T et al. (July 2013), “iRhom2 controls the substrate selectivity of stimulated ADAM117-dependent ectodomain shedding”, PNAS 110(28): 11433-11438; and Li X et al. (May 2015), “iRhoms 1 and 2 are essential upstream regulators of ADAM17-dependent EGFR signaling”, PNAS 112(19): 6080-6085).
# Expression plasmids for alkaline phosphatase (AP)-fused human KL2 and TGFα had been previously designed and generated through gene synthesis followed by subcloning into the pcDNA3.1(+)/Hygro expression vector. […] Subsequently, DNA amplifications were performed to obtain sufficient amounts of the expression vectors. The quality of DNA and gene sequences were confirmed through restriction digest and Sanger sequencing. In parallel, cell culture of HEK-293 cells was initiated. Master and working cell banks were prepared, scaled up and transfected with the respective constructs by electroporation. During cell culturing, cell density and viability were monitored to ensure optimal conditions for the transfections. After PMA stimulation, AP-coupled KL2 or TGFα were detected by measurement of AP activity in the supernatant.
# After electroporation, cells were further cultured in presence of selection antibiotics, hygromycin B, to generate stably transfected polyclonal cell pools. For both assays, KL2 and TGFα shedding, the respective selected pool turned out to be suitable. Final assay conditions were determined for the selected pools. For all experiments, batimastat (BB94, 10 μM) was used as positive control for full inhibition of KL2 or TGFα shedding.
# The wells of sterile 384-well flat bottom clear plates for TGF-AP assays were coated with 10 μL of 0.1 mg/mL poly-d-lysine for 3-4 hr at 25° C. or overnight at 4° C., then washed 2× with PBS and patted dry. 60 μL of cells (20,000/well) were added to the sterile 384-well plate and incubated in Optimem (with 2% FCS and 1% Pen-strep) overnight at 37° C. (5% CO2). After incubation overnight, 55 μL medium were removed with a BioTek EL406 and 10 μL of prediluted compounds were added to the cells for a final concentration of 20 μM. After incubation for 15 min, 15 μL of PMA (100 ng/mL final conc.) were added. The cells were incubated for 2 h at 37° C. (5% CO2). Then, the plates were centrifuged for 5 min at 1000 rpm and 12 μL of the supernatant was transferred to a fresh 384 well plate. 12 μL of pNPP p-nitrophenyl phosphate (final 1 M pNPP) was added. AP reaction was performed for 1 h at 37° C. The reaction was stopped by addition of 12 μL of NaOH (1 M final conc.), the plates were centrifuged to remove air bubbles and the absorbance of pNP was measured at 405 nm.
row,SMILES,IC50 [µM]
1,Cc1c(C(=O)NCc2cccs2)sc(=O)n1Cc1ccccc1F [Compound 5],> 40
2,Cc1c(C(=O)NCc2cccs2)sc(=O)n1Cc1ccccc1 [Compound 4],> 40
3,Cc1c(C(=O)NCc2ccco2)sc(=O)n1Cc1ccccc1F [Compound 7],> 40
4,O=C(c1c(Cl)cccc1Cl)N1CCC(Cc2ccc(F)cc2)CC1 [Compound 3],> 40

# Test system: PMA-stimulated KL2 release from HEK-293 cells (iRhom2/ADAM17 selective substrate)
# Assay: Secondary screen (Example 3a): PMA-stimulated KL2 release from HEK-293 cells, AP readout
# Format: cell-based
# Settings: Homo sapiens, HEK293, HEK-293 cells expressing KL2-AP, PMA 500 ng/mL, 2 h, read-out: Secondary Screen XC50 KL2
# Excerpt: Two separate screens to identify novel small molecule inhibitors of iRhom2/ADAM17 activity were developed. […] Therefore, the primary screen for small molecule inhibitors of iRhom2/ADAM17 was a screen for inhibitors that blocked the release of TNFα from LPS-stimulated THP-1 human myeloid cells, a process that depends on iRhom2 and ADAM17. […]
# First, expression plasmids for alkaline phosphatase (AP)-fused KL2 and TGFα were designed and generated through gene synthesis followed by subcloning into the pcDNA3.1(+)/Hygro expression vector. […] During cell culturing, cell density and viability were monitored to ensure optimal conditions for the transfections. After PMA stimulation, AP-coupled KL2 or TGFα were detected by measurement of AP activity in the supernatant. […]
# After electroporation, cells were further cultured in presence of selection antibiotics, hygromycin B, to generate stably transfected polyclonal cell pools. […] Final assay conditions were determined for the selected pools. […]
# 60 μL of cells (40,000/well) were added to a sterile 384-well plate. […] The reaction was stopped by addition of 20 μL of NaOH (1 M final conc.) and the absorbance of pNP was measured at 405 nm.
row,SMILES,IC50 [µM]
1,CCOC(=O)c1ccc(Nc2nc3nonc3n3nnnc23)cc1 [Compound 2],> 128
2,CCC(=O)NCCc1c(/C=C2/C(=O)NC(=O)N(c3ccc(C)cc3C)C2=O)[nH]c2ccccc12 [Compound 1],> 128
